Data reported in patent publication US20130156768A1, “COMBINATION OF ANTI-CTLA4 ANTIBODY WITH BRAF INHIBITORS FOR THE SYNERGISTIC TREATMENT OF PROLIFERATIVE DISEASES” (Bristol-Myers Squibb Company, priority 2010, published 2013).

Tests used:
[1] = tested on: CT26 colon carcinoma; test: Antitumor activity in the murine CT26 colon carcinoma model; format: in vivo; conditions: for % TGI: CT26
From the text: Thus, there was an interest in determining whether a potentiation of an antitumor immune response could be achieved by the combination of a CTLA-4 blocking mAb and a BRAF inhibitor in a murine CT26 colon carcinoma model.
Pharmacology studies are currently being conducted in support of the proposed clinical trial evaluating the antitumor activity of the BRAF inhibitor Methyl {5-[2-chloro-2-methylphenyl)-1-hydroxy-3-oxo-2,3-dihydro-1H-isoindol-1-yl]-1H-benzimidazol-2-yl}carbamate, and ipilimumab in subjects with advanced melanoma. Efficacy studies were conducted in the CT26 colon carcinoma, a tumor model sensitive to CTLA-4 blockade.
Two different combination schedules were evaluated, concurrent and sequential. In the concurrent setting, Methyl {5-[2-chloro-2-methylphenyl)-1-hydroxy-3-oxo-2,3-dihydro-1H-isoindol-1-yl]-1H-benzimidazol-2-yl}carbamate (100 mg/kg, p.o.) was administered every other day for […] while CTLA-4 mAb (20 mg/kg, i.p.) was dosed every 4 days for 3 doses starting on day 5. In the sequential setting, Methyl {5-[2-chloro-2-methylphenyl)-1-hydroxy-3-oxo-2,3-dihydro-1H-isoindol-1-yl]-1H-benzimidazol-2-yl}carbamate (100 mg/kg, p.o.) was dosed every other day for 4 doses from day 4-10 while CTLA-4 mAb (20 mg/kg, i.p.) was dosed every 4 days for 3 doses starting on day 11. Control groups consisted of each agent dosed in combination with vehicle control following the same schedule.

[2] = tested on: OVA-specific T cells; test: Model of antigen-induced T-cell proliferation (OVA adoptive transfer, OVA-specific tetramer staining); format: in vivo, C57BL6 mice; conditions: CTLA-4 mAb 20 mg/kg days 1, 3; BRAF inhibitor 100 mg/kg days 1, 3, 5; erlotinib 100 mg/kg p.o. daily days 1-5; FIG. 3
Experimental: The effect of the combination of a BRAF inhibitor and CTLA-4 mAb was evaluated in a model of antigen-induced T-cell proliferation. In this model, T cells specific for the antigen ovalbumin (OVA) were adoptively transferred into naive C57BL6 mice on study day −1. On Study Day 0, animals were challenged with 250 ug of an OVA peptide (i.v.). Animals were reandomized and divided into groups of 5. Treatments were administered as follows: CTLA-4 mAb—20 mg/kg—study days 1 and 3; Methyl {5-[2-chloro-2-methylphenyl)-1-hydroxy-3-oxo-2,3-dihydro-1H-isoindol-1-yl]-1H-benzimidazol-2-yl}carbamate—100 mg/kg—study days 1, 3, and 5. In addition, another study group received erlotinib (TARCEVA®) daily at 100 mg/kg, p.o. from study days 1 through 5. Combination groups consisted of Compound Ia and CTLA-4 mAb or erlotinib+CTLA-4 mAb following the same schedules. Control animals received the OVA challenge and no further treatment. Expansion of OVA-specific T cells was measured prior to OVA challenge and on days 2, 5, 7 and 16 by OVA-specific tetramer staining.

[3] = tested on: SA1N fibrosarcoma; test: Antitumor activity in the SA1N fibrosarcoma tumor model; format: in vivo
Experimental: In addition, combination of both agents synergistically expanded antigen-specific T cells when dosed concurrently.
In the SA1N tumor model, the effect of the combination of both agents was investigated under either a concurrent dosing regimen or a sequential schedule.
Sa1N tumors were implanted s.c. and treatments were administered as follows: Methyl {5-[2-chloro-2-methylphenyl)-1-hydroxy-3-oxo-2,3-dihydro-1H-isoindol-1-yl]-1H-benzimidazol-2-yl}carbamate, […], 20 mg/kg, Q4D×3, starting on day 17.

[4] = tested on: OVA-specific T cells; test: Second study in the OVA adoptive transfer model (OVA-specific T cell responses); format: in vivo, murine; conditions: agent added to CTLA-4 mAb, FIG. 5
From the text: In addition, combination of both agents synergistically expanded antigen-specific T cells when dosed concurrently. The effect of this promising combination was further investigated in a) a tumor model sensitive to CTLA-4 blockade (SA1N fibrosarcoma); b) in the antigen (OVA)-specific T cell model to assess the effect of Methyl {5-[2-chloro-2-methylphenyl)-1-hydroxy-3-oxo-2,3-dihydro-1H-isoindol-1-yl]-1H-benzimidazol-2-yl}carbamate at different dose levels and compared its activity to another BRAF inhibitor (EXT-000153, Genentech) and EVRI.
Previously, the unexpected expansion of antigen-specific T cells with the use of Methyl {5-[2-chloro-2-methylphenyl)-1-hydroxy-3-oxo-2,3-dihydro-1H-isoindol-1-yl]-1H-benzimidazol-2-yl}carbamate+CTLA-4 mAb in an OVA adoptive transfer model was observed (see Example 2). Thus, a second study was designed to confirm these initial observations to determine the dose effect of Methyl {5-[2-chloro-2-methylphenyl)-1-hydroxy-3-oxo-2,3-dihydro-1H-isoindol-1-yl]-1H-benzimidazol-2-yl}carbamate and to determine whether this phenomenon could also be elicited by other RAF inhibitors. In addition, EVRI, an EGFR/VEGFR inhibitor which inhibits the MAPK pathway was also included in this experiment.

Structure (SMILES)	% TGI ([1]; concurrent schedule, Day 26, BRAF inhibitor 100 mg/kg p.o. every other day x7 from day 4, CTLA-4 mAb 20 mg/kg i.p. every 4 days x3 from day 5)	% TGI ([1]; sequential schedule, day 26, BRAF inhibitor 100 mg/kg p.o. every other day x4 day 4-10, CTLA-4 mAb 20 mg/kg i.p. every 4 days x3 from day 11)	complete regressions (CR) ([1]; CT-26 colon carcinoma model)	OVA tetramer response (expansion of OVA-specific T cells) [2]	toxicity of extended dosing ([3]; SA1N tumor model, 7 doses used in the concurrent regimen)	complete regressions ([3]; SA1N, sequential treatment: BRAF inhibitor 100 mg/kg Q2Dx4 from day 10, CTLA-4 mAb 20 mg/kg Q4Dx3 from day 17)	effect on the OVA-specific T cell expansion elicited by CTLA-4 mAb [4]
COC(=O)Nc1nc2cc(C3(O)c4ccccc4C(=O)N3c3cc(Cl)ccc3C)ccc2[nH]1 (centres unmarked)	70%	77%	1 CR	effect similar to CTLA-4 mAb	toxic	no regression	enhanced CTLA-4 blockade OVA-specific T cell expansion in a dose-related manner
C#Cc1cccc(Nc2ncnc3cc(OCCOC)c(OCCOC)cc23)c1 [erlotinib, reference compound]				decreased the response			
